Measurements published in ChEMBL document CHEMBL1201862, “PubChem BioAssay data set” (2004).
“And” between values parts separate entries of the source, which are not always exact repeats. Equal entries are not always repeated.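 Tested at 5 concentrations; 48 h exposure; 96-well plates; endpoints linearly interpolated, else capped at highest concentration. Abbreviation: GI50, concentration required for 50% inhibition of growth.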 The source made the active and inactive calls. Rule as the data show it: active = GI50 up to about 1.1 µM and inactive = higher.

Columns and labels:
Experiment in all cases: growth of human tumour cells (NCI), 48 h
SF-539 = system: SF-539
CCRF-CEM = system: CCRF-CEM
NCI/ADR-RES = system: NCI/ADR-RES
OVCAR-3 = system: OVCAR-3
NCI-H23 = system: NCI-H23
786-0 = system: 786-0
NCI-H460 = system: NCI-H460
MCF7 = system: MCF7
EKVX = system: EKVX
IGROV-1 = system: IGROV-1
SK-MEL-28 = system: SK-MEL-28
OVCAR-8 = system: OVCAR-8
NCI-H522 = system: NCI-H522
OVCAR-5 = system: OVCAR-5
ACHN = system: ACHN
NCI-H226 = system: NCI-H226
LOX IMVI = system: LOX IMVI
T47D = system: T47D
MOLT-4 = system: MOLT-4
UACC-257 = system: UACC-257

| SMILES | GI50 (SF-539) | GI50 (CCRF-CEM) | GI50 (NCI/ADR-RES) | GI50 (OVCAR-3) | GI50 (NCI-H23) | GI50 (786-0) | GI50 (NCI-H460) | GI50 (MCF7) | GI50 (EKVX) | GI50 (IGROV-1) | GI50 (SK-MEL-28) | GI50 (OVCAR-8) | GI50 (NCI-H522) | GI50 (OVCAR-5) | GI50 (ACHN) | GI50 (NCI-H226) | GI50 (LOX IMVI) | GI50 (T47D) | GI50 (MOLT-4) | GI50 (UACC-257) |
| --- | --- | --- | --- | --- | --- | --- | --- | --- | --- | --- | --- | --- | --- | --- | --- | --- | --- | --- | --- | --- |
| COc1ccc2cc(C(=O)NCCCNC(=O)c3ccc4cc(OC)ccc4c3)ccc2c1 | 3.94 µM (inactive) | > 100 µM (inactive) | > 61.5 µM (inactive) | > 100 µM (inactive) | > 100 µM (inactive) | 19.6 µM (inactive) | > 64.9 µM (inactive) | > 100 µM (inactive) | 49.8 µM (inactive) | 39.4 µM (inactive) | > 100 µM (inactive) | 22.6 µM (inactive) | > 100 µM (inactive) | > 100 µM (inactive) | 33.7 µM (inactive) | 49.4 µM (inactive) | > 100 µM (inactive) | > 75.7 µM (inactive) | > 100 µM (inactive) | > 96.2 µM (inactive) |
| O=C1N/C(=N/N=C\C(O)C(O)C(O)C(O)CO)N/C1=C/c1ccc(Cl)cc1 (stereo not given) | > 100 µM (inactive) | 40.4 µM (inactive) | > 100 µM (inactive) | 43.6 µM (inactive) and 31.6 µM (inactive) | > 100 µM (inactive) | > 100 µM (inactive) | > 100 µM (inactive) | > 100 µM (inactive) | > 100 µM (inactive) and 84.5 µM (inactive) | > 100 µM (inactive) | > 100 µM (inactive) | > 100 µM (inactive) | 55.6 µM (inactive) and 58.1 µM (inactive) | > 100 µM (inactive) | > 100 µM (inactive) | 74.8 µM (inactive) | > 100 µM (inactive) | 49.7 µM (inactive) and 36.6 µM (inactive) | 46 µM (inactive) and > 10 µM (inactive) | > 100 µM (inactive) |
| C=CC(Br)(CBr)CCC(Br)C(C)C (stereo not given) | 2.66 µM (inactive) | 0.822 µM (active) | 7.85 µM (inactive) | 4.5 µM (inactive) | 6.82 µM (inactive) | 1.58 µM (inactive) | 4.71 µM (inactive) | 1.82 µM (inactive) | 18.3 µM (inactive) | 3.46 µM (inactive) | 3.49 µM (inactive) | 2.44 µM (inactive) | 1.49 µM (inactive) | 15.6 µM (inactive) | 8.15 µM (inactive) | 16.6 µM (inactive) | 1.53 µM (inactive) | 0.333 µM (active) | 1.91 µM (inactive) | 8.18 µM (inactive) |
| O=C1/C(=N\n2c(S)nnc2-c2ccncc2)c2cc(Cl)ccc2N1CN1CCCCC1 | 35 µM (inactive) | 6.97 µM (inactive) | 57.5 µM (inactive) | 73.8 µM (inactive) | 46.6 µM (inactive) | 27.7 µM (inactive) | 36.8 µM (inactive) | 31.2 µM (inactive) | 4.65 µM (inactive) | 16.1 µM (inactive) | 65.3 µM (inactive) | 31.8 µM (inactive) | 13.7 µM (inactive) | > 100 µM (inactive) | 50.4 µM (inactive) | > 100 µM (inactive) | 17.5 µM (inactive) | 23.1 µM (inactive) | 12.3 µM (inactive) | 23.4 µM (inactive) |
| Cc1cc2c(cc1Cl)SSc1cc(Cl)c(C)cc1S(=O)(=O)Nc1nc(N)nn1C(O)n1nc(N)nc1NS2(=O)=O | > 10 µM (inactive) | > 10 µM (inactive) | > 10 µM (inactive) | > 10 µM (inactive) | > 10 µM (inactive) | > 10 µM (inactive) | > 10 µM (inactive) | > 10 µM (inactive) | > 10 µM (inactive) | > 10 µM (inactive) | > 10 µM (inactive) | > 10 µM (inactive) | > 10 µM (inactive) | > 10 µM (inactive) | > 10 µM (inactive) | > 10 µM (inactive) | > 10 µM (inactive) | > 10 µM (inactive) | > 10 µM (inactive) | > 10 µM (inactive) |
| O=[N+]([O-])CC(SCc1ccccc1)c1ccc2c(c1)OCO2 (stereo not given) | 4.01 µM (inactive) | 2.54 µM (inactive) | 9.57 µM (inactive) | 6.12 µM (inactive) | 7.19 µM (inactive) | 1.68 µM (inactive) | 14.8 µM (inactive) | 3.04 µM (inactive) | 20.2 µM (inactive) | 5.6 µM (inactive) | 5.82 µM (inactive) | 8.49 µM (inactive) | 11.5 µM (inactive) | 15.2 µM (inactive) | 13.1 µM (inactive) | 7.91 µM (inactive) | 1.56 µM (inactive) | 19.6 µM (inactive) | 3.37 µM (inactive) | 6.79 µM (inactive) |
| Cc1cc(N(CCC#N)CCC#N)ccc1/C=C1N=C(/C=C\c2ccccc2)N(c2ccc(Cl)cc2)C\1=O | 6.71 µM (inactive) | 3.4 µM (inactive) | > 100 µM (inactive) | 40.5 µM (inactive) | 36.6 µM (inactive) | 54.8 µM (inactive) | 10.8 µM (inactive) | 29.2 µM (inactive) | > 100 µM (inactive) | 47.3 µM (inactive) | 5.46 µM (inactive) | > 40.8 µM (inactive) | 24.7 µM (inactive) | 22.2 µM (inactive) | 8.32 µM (inactive) | > 100 µM (inactive) | 1.01 µM (active) | > 100 µM (inactive) | 25 µM (inactive) | > 54.6 µM (inactive) |
| CN/N=C(/CCN1CCCC1)CC(c1ccccc1)c1c(O)c2ccccc2oc1=O (stereo not given) | > 100 µM (inactive) | > 71.9 µM (inactive) | > 100 µM (inactive) | > 100 µM (inactive) | > 96.4 µM (inactive) | > 100 µM (inactive) | > 100 µM (inactive) | > 100 µM (inactive) | > 100 µM (inactive) | > 100 µM (inactive) | > 100 µM (inactive) | > 100 µM (inactive) | > 100 µM (inactive) | > 100 µM (inactive) | > 100 µM (inactive) | > 65.6 µM (inactive) | > 100 µM (inactive) | 49.4 µM (inactive) | > 65.3 µM (inactive) | > 100 µM (inactive) |
| CCOC(=O)n1cncc1CC(NC(=O)Cc1c(C(=O)C=C(C)C)[nH]c2ccccc12)C(=O)OC (stereo not given) | 19.5 µM (inactive) | 0.708 µM (active) | 33.4 µM (inactive) | 17.7 µM (inactive) | 25.4 µM (inactive) | 21.5 µM (inactive) | 22.3 µM (inactive) | 24.7 µM (inactive) | 15.5 µM (inactive) | 14.9 µM (inactive) | 16 µM (inactive) | 18.5 µM (inactive) | 3.56 µM (inactive) | 15.5 µM (inactive) | 19.3 µM (inactive) | 20.8 µM (inactive) | 15.5 µM (inactive) | 2.8 µM (inactive) | 20 µM (inactive) | 13.3 µM (inactive) |
| COC(=O)[C@@H]1CN(C(=O)c2ccccc2)C(=O)N1C(=O)OCc1ccccc1 | > 100 µM (inactive) | > 100 µM (inactive) | > 100 µM (inactive) | > 100 µM (inactive) | > 100 µM (inactive) | > 100 µM (inactive) | > 100 µM (inactive) | > 100 µM (inactive) | > 100 µM (inactive) | > 100 µM (inactive) | > 100 µM (inactive) | > 100 µM (inactive) | > 100 µM (inactive) | > 100 µM (inactive) | > 100 µM (inactive) | > 100 µM (inactive) | > 100 µM (inactive) | > 100 µM (inactive) | > 100 µM (inactive) | > 100 µM (inactive) |
| Cc1ccc(NC(=O)/C(Cc2cc(=O)oc3cc(O)ccc23)=N\NC(=O)C[N+](C)(C)C)cc1C | > 100 µM (inactive) | > 100 µM (inactive) | > 100 µM (inactive) | > 100 µM (inactive) | > 100 µM (inactive) | > 100 µM (inactive) | > 100 µM (inactive) | > 100 µM (inactive) | > 100 µM (inactive) | > 100 µM (inactive) | > 100 µM (inactive) | > 100 µM (inactive) | > 100 µM (inactive) | > 100 µM (inactive) | > 100 µM (inactive) | > 100 µM (inactive) | > 100 µM (inactive) | > 100 µM (inactive) | > 100 µM (inactive) | > 100 µM (inactive) |
| C=CCCCCNC(=O)C[C@@H]1C2=C(CC[C@H]1O[Si](C)(C)C(C)(C)C)N1C(=O)CCC/C=C\C1C2 (stereo not given in full) | 17.5 µM (inactive) | 10.6 µM (inactive) | 12.2 µM (inactive) | 14 µM (inactive) | 13.7 µM (inactive) | 15.4 µM (inactive) | 14.3 µM (inactive) | 12.2 µM (inactive) | 17.3 µM (inactive) | 15.6 µM (inactive) | 15 µM (inactive) | 14.9 µM (inactive) | 11.7 µM (inactive) | 16 µM (inactive) | 15.4 µM (inactive) | 15.5 µM (inactive) | 17 µM (inactive) | 12.7 µM (inactive) | 5.89 µM (inactive) | 13.1 µM (inactive) |
| Cc1ccc(C(=O)Nc2ccc(CP(=O)(O)O)cc2CP(=O)(O)O)cc1NC(=O)c1cccc(NC(=O)Nc2cccc(C(=O)Nc3cc(C(=O)Nc4ccc(CP(=O)(O)O)cc4CP(=O)(O)O)ccc3C)c2)c1 | > 100 µM (inactive) | > 100 µM (inactive) | > 100 µM (inactive) | > 100 µM (inactive) | > 100 µM (inactive) | > 100 µM (inactive) | > 100 µM (inactive) | > 100 µM (inactive) | > 100 µM (inactive) | > 100 µM (inactive) | > 100 µM (inactive) | > 100 µM (inactive) | > 100 µM (inactive) | > 100 µM (inactive) | > 100 µM (inactive) | > 100 µM (inactive) | > 100 µM (inactive) | > 100 µM (inactive) | > 100 µM (inactive) | > 100 µM (inactive) |
